Measured values: patent publication US9440952B2, “Compounds inhibiting leucine-rich repeat kinase enzyme activity” (Merck Sharp & Dohme Corp., priority 2013, dated 2016)

What follows are compounds tested against T1, LRRK2(G2019S mutation, GST-LRRK2(amino acids 970-2527)) (Homo sapiens, UniProt Q5S007, G2019S) (assay: LRRK2 Km ATP LanthaScreen Assay). Conditions: Km ATP LanthaScreen Assay; LRRK2 G2019S; mean IC50 values; Examples 185-215; read-out: LRRK2 IC5).
T1 construct: GST-LRRK2(amino acids 970-2527); GST (N); purchased Life Technologies Corporation
T1 sequence (Q5S007 970-2527 G2019S): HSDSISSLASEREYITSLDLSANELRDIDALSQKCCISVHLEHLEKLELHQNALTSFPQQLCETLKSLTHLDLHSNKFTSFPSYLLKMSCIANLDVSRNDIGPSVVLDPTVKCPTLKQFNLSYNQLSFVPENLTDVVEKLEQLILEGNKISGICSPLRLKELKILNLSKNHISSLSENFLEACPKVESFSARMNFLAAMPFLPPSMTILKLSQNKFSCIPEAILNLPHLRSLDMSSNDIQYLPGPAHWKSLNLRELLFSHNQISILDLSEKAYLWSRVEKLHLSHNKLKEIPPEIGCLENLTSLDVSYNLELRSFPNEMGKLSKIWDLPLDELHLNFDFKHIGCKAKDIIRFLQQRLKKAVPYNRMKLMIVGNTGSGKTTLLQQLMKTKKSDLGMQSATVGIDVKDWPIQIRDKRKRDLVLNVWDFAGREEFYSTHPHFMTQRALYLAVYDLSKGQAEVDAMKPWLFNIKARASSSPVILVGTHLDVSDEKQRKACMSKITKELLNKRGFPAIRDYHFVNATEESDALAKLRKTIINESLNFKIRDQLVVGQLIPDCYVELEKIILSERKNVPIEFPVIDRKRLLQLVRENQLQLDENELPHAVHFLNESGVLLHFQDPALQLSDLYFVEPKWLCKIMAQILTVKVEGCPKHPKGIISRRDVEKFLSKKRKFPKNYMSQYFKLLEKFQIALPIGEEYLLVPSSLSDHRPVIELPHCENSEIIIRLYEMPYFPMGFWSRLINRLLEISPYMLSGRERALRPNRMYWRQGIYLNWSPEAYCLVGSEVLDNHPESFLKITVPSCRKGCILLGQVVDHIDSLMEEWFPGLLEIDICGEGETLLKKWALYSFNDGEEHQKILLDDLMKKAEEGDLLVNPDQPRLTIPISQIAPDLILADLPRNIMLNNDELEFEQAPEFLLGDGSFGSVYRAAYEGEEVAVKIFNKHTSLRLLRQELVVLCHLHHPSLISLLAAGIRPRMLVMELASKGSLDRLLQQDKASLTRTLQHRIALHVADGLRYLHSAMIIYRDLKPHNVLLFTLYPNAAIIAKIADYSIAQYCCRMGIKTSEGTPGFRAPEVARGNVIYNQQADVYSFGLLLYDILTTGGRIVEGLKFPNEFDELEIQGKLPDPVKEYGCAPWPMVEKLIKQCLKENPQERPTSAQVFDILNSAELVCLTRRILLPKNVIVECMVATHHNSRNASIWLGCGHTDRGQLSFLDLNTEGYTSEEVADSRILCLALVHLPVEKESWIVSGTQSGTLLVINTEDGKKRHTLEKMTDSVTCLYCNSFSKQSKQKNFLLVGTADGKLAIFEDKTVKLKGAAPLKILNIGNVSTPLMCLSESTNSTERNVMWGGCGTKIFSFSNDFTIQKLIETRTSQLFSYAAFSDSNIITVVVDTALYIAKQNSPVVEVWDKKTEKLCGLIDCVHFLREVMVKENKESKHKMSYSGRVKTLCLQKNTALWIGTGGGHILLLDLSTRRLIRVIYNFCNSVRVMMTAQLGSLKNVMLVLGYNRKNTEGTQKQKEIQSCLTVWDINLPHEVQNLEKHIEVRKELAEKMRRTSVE
Format: biochemical
How it was run: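 IC50 values are means of several runs in the Km-ATP LanthaScreen format, analysed by curve fitting of the LanthaScreen read-out.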
Work on CC(C)Oc1ccc2[nH]nc(-c3ccnc(N4CCC(n5cnnc5)CC4)c3)c2c1 [Example 194] yielded an IC50 of 4.4 nM. Cc1nonc1N1CCN(c2cc(-c3n[nH]c4ccc(OC(C)C)cc34)ccn2)CC1 [Example 207] showed an IC50 of 20.8 nM. In the case of CC(C)Oc1ccc2[nH]nc(-c3ccnc(N4CCn5ccnc5C4)c3)c2c1 [Example 196], the IC50 is reported as 8.6 nM.

Same assay, conditions: Km ATP LanthaScreen Assay; LRRK2 G2019S; mean IC50 values; read-out: LRRK2 IC50
CC(C)Oc1ccc2[nH]nc(-c3ccnc(NC(=O)C(C)C)c3)c2c1 [Example 154] showed an IC50 of 39.4 nM. With CC(C)Oc1ccc2[nH]nc(-c3ccnc(NCCO)c3)c2c1 [Example 140] the IC50 was 7.3 nM. In the case of Cc1nonc1CC(=O)Nc1cc(-c2n[nH]c3ccc(OC(C)C)cc23)ccn1 [Example 161], the IC50 is reported as 32 nM. In the case of CN(C)c1cc(-c2n[nH]c3ccc(Nc4cccc(S(C)(=O)=O)c4)cc23)ccn1 [Example 109], the IC50 is reported as 34 nM. For COCCC(=O)Nc1cc(-c2n[nH]c3ccc(OC(C)C)cc23)ccn1 [Example 150], the IC50 was 51.7 nM. With c1ccc2c(-c3ccnc(N4CCCCC4)c3)n[nH]c2c1 [Example 6] the IC50 was 16 nM. In the case of c1ccc2c(-c3ccnc(N4CCC(N5CCCC5)CC4)c3)n[nH]c2c1 [Example 29], the IC50 is reported as 45 nM. CN(C)C(=O)CN1CCN(c2cc(-c3n[nH]c4ccccc34)ccn2)CC1 [Example 65] was tested, and the IC50 was 6.8 nM. For c1ccc2c(-c3ccnc(NC4CCCOC4)c3)n[nH]c2c1 (stereo not shown) [Example 74], the IC50 was 57 nM. With c1ccc(N2CCN(c3cc(-c4n[nH]c5ccccc45)ccn3)CC2)nc1 [Example 13] the IC50 was 22 nM. CN1CCC(O)(CNc2cc(-c3n[nH]c4ccccc34)ccn2)CC1 [Example 47] was tested, and the IC50 was 63 nM. For CO[C@H]1CN(c2cc(-c3n[nH]c4ccc(OC(F)(F)F)cc34)ccn2)C[C@@H]1O [Example 238], the IC50 was 165 nM. Compound CCOc1ccc2[nH]nc(-c3ccnc(N4CC[C@@H](OC)C4)c3)c2c1 [Example 227] has an IC50 of 11.3 nM. CN1CCCC(CN(C)c2cc(-c3n[nH]c4ccccc34)ccn2)C1 (stereo not shown) [Example 32] was tested, and the IC50 was 75 nM. CC(C)CCNc1cc(-c2n[nH]c3ccc(Nc4cccc(S(C)(=O)=O)c4)cc23)ccn1 [Example 110] showed an IC50 of 83 nM. With CS(=O)(=O)c1cccc(Nc2ccc3[nH]nc(-c4ccnc(NC5CC5)c4)c3c2)c1 [Example 112] the IC50 was 11 nM.

Same assay, conditions: Km ATP LanthaScreen; mean IC50 of several tests; read-out: LRRK2 IC50
For Cn1cc(-c2cc3c(-c4ccnc(N5CC(F)C5)c4)n[nH]c3cc2F)cn1 [Ex 353], the IC50 was 4.6 nM. Work on COCC(C)Oc1ccc2[nH]nc(-c3ccnc(N4CCOCC4)c3)c2c1 (stereo not shown) [Example 305] yielded an IC50 of 5.4 nM. CC(C)Oc1ccc2[nH]nc(-c3ccnc(N4CCN(C)C(C)C4)c3)c2c1 (stereo not shown) [Example 384] showed an IC50 of 2.2 nM. Compound Cn1cc(-c2ccc3[nH]nc(-c4ccnc(N5CCc6oc(C7CC7)nc6C5)c4)c3c2)cn1 [Example 272] has an IC50 of 5.8 nM. For Cn1cc(-c2ccc3[nH]nc(-c4ccnc(N5CCC(C(=O)O)CC5)c4)c3c2)cn1 [Example 304], the IC50 was 3.6 nM. Work on Cc1ncc(-c2ccc3[nH]nc(-c4ccnc(N5CCOCC5)c4)c3c2)n1C [Example 317] yielded an IC50 of 1.4 nM. Cn1cc(-c2ccc3[nH]nc(-c4ccnc(N5CCC(F)(F)CC5)c4)c3c2)cn1 [Example 273] was tested, and the IC50 was 3 nM. COc1cccc(S(=O)(=O)Nc2cc(-c3n[nH]c4ccc(OC(C)C)cc34)ccn2)c1 [Example 257] gave an IC50 of 78.4 nM. With CCOc1ccc2[nH]nc(-c3ccnc(N4CCS(=O)(=O)CC4)c3)c2c1 [Example 298] the IC50 was 51 nM. Work on CCOc1ccc2[nH]nc(-c3ccnc(N4CCC(OC)CC4)c3)c2c1 [Example 296] yielded an IC50 of 7.5 nM. CC(C)Oc1ccc2[nH]nc(-c3ccnc(NS(=O)(=O)c4ccc(C(C)(C)C#N)cc4)c3)c2c1 [Example 264] showed an IC50 of 68.8 nM. Cn1cc(-c2ccc3[nH]nc(-c4ccnc(N5CCOCC5)c4)c3c2)nn1 [Example 340] gave an IC50 of 1.1 nM. Cn1cc(-c2ccc3[nH]nc(-c4ccnc(N5CCN(CCO)CC5)c4)c3c2)cn1 [Example 265] gave an IC50 of 1.7 nM. With FC(F)n1cc(-c2ccc3[nH]nc(-c4ccnc(N5CCOCC5)c4)c3c2)cn1 [Example 396] the IC50 was 2.8 nM. With Cc1nnc(-c2ccc3[nH]nc(-c4ccnc(N5CC(F)C5)c4)c3c2)o1 [Example 308] the IC50 was 4.9 nM.
